Tests used:
hERG = hERG (Homo sapiens (Human), UniProt Q12809); experiment: hERG assay 2, QPatch II 48X, room temperature; assay type: cell-based; settings: hERG DUO cell line, top 200 μM
Procedure: Experiments were performed on the QPatch II 48X (Sophion Biosciences) high throughput patch clamp platform at room temperature and used single hole Qplates. hERG DUO cell line (BSys) was used. The internal patch clamp solution was KF 60 mM, KCl 70 mM, HEPES 10 mM, EGTA 10 mM, and 5 mM Mg ATP (pH7.2). After sealing and whole cell access was gained the external solution (NaCl 140 mM, KCl 4 mM, HEPES 10 mM, CaCl2 2 mM, MgCl2 1 mM, glucose 5 mM (pH 7.4) was applied twice to establish stable baseline currents. An industry standard +40/−40 mV voltage protocol was applied every 15 seconds. All compounds were tested in a 6-point cumulative assay (final DMSO concentration 0.4-2% depending on stock concentration of compounds). Compounds were dispensed from initial 10 mM or 50 mM DMSO stocks after which DMSO dilutions were undertaken with a top concentration of 200 μM tested. Solvent controls were run in all experiments in line with the DMSO % required. Only wells that passed acceptance criteria for this platform were used in this analysis (500 MegaOhm seal resistance and current size >0.2 nA). Analysis was completed in Prism Graphpad to complete a composite IC50, by plotting % inhibition versus log compound concentration and using a log(inhibitor) vs. response—Variable slope.

muscarinic M2 receptor = muscarinic M2 receptor (Homo sapiens (Human), UniProt P08172); experiment: Muscarinic M2 receptor functional assay, antagonist effect (assay 2); assay type: cell-based; settings: cAMP, 1 μM acetylcholine
muscarinic M2 receptor, sequence (P08172 whole entry): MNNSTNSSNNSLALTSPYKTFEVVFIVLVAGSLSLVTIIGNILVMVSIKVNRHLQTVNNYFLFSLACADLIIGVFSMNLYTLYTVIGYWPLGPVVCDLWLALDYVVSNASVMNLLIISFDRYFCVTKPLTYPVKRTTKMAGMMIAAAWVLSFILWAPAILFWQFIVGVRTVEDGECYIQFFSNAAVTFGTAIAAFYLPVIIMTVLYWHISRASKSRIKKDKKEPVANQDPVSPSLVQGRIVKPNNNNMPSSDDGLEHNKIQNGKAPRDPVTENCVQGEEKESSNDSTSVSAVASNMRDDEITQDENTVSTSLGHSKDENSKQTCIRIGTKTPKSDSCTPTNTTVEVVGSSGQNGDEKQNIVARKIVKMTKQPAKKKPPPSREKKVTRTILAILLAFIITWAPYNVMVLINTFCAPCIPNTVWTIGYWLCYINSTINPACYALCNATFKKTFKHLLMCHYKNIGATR
Procedure: Thereafter, the reference agonist acetylcholine and the adenylyl cyclase activator NKH 477 were added at respective final concentrations of 1 μM and 5 μM. For basal control measurements, acetylcholine was omitted from the wells containing 10 μM methoctramine. Following 10 minutes incubation at 37° C., the cells were lysed, and the fluorescence acceptor (D2-labeled cAMP) and fluorescence donor (anti-cAMP antibody labelled with europium cryptate) were added. After 60 minutes at room temperature, the fluorescence transfer was measured at λex=337 nm and λem=620 and 665 nm using a microplate reader (Rubystar, BMG). The cAMP concentration was determined by dividing the signal measured at 665 nm by that measured at 620 nm (ratio). The results were expressed as a percent inhibition of the control response to 1 μM acetylcholine. For test compounds and for standard reference antagonist methoctramine, which is tested in each experiment, assays were run in eight-point concentration response mode and IC50 values determined following non-linear regression curve analysis. Curve analysis was completed using software developed at Cerep (Hill software) and validated by comparison with data generated by the commercial software SigmaPlot®4.0 for Windows® (© 1997 by SPSS Inc.).

Menin protein = Menin protein (Homo sapiens, UniProt O00255, DEL460-519); experiment: Menin/MLL fluorescence polarization (FP) assay; assay type: binding; settings: Menin 2 nM, cRho110-Ahx-MBM1/MBM2 peptide 1 nM
Menin protein, sequence (O00255 with tags, fused parts or gaps DEL460-519): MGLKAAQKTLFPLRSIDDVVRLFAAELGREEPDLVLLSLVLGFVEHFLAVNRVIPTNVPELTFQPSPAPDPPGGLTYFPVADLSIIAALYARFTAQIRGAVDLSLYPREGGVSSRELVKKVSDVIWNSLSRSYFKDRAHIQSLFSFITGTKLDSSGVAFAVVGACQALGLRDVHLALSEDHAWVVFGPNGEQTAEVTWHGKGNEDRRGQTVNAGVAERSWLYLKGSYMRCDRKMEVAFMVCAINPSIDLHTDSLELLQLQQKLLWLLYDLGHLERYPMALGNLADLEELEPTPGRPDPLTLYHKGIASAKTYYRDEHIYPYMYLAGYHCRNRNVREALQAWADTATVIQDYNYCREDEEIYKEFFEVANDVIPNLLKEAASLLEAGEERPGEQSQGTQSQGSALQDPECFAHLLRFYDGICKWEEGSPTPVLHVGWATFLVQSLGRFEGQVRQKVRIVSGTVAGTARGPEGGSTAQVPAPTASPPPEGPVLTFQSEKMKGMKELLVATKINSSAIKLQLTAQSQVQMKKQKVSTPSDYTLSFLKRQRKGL
Procedure: Compounds were tested in a biochemical binding assay using Menin protein at 2 nM (N6his-tev-Menin_4i80, PB-20-1459) and the substrate cRho110-Ahx-MBM1/MBM2 peptide (UbiQ, UbiQ-Q20201030; cRh110-Ahx-[…]-QRVPALLLPPG-NH2) at 1 nM.
384 Low volume black plates (Corning #4514) were used. 5 μL/well compound or 3% DMSO was added at 10-fold serial dilutions in DMSO from 10 μM. 5 μL/well cRho110-Ahx-MBM1/MBM2 peptide or binding buffer (50 mM Tris pH 7.5, 50 mM NaCl, 1 mM TCEP, 0.01% BGG, 0.01% Brij-35) was added to all wells. 5 μL/well Menin protein or binding buffer (50 mM Tris pH 7.5, 50 mM NaCl, 1 mM TCEP, 0.01% BGG, 0.01% Brij-35) was added to all wells. Plates were read on an EnVision plate reader (Perkin Elmer) with excitation at 480 nm and emission at 535 nm P+S, and measured every 5 minutes for 180 minutes.
Data were analyzed in Genedata Screener®. IC50 values were determined by plotting % inhibition versus log compound concentration and using a one site dose response model. Raw data signals were normalized using 1% DMSO no Menin as 100% inhibitor control and 1% DMSO with Menin and no inhibitor as 0% inhibitor control.

hERG, sequence (Q12809 whole entry): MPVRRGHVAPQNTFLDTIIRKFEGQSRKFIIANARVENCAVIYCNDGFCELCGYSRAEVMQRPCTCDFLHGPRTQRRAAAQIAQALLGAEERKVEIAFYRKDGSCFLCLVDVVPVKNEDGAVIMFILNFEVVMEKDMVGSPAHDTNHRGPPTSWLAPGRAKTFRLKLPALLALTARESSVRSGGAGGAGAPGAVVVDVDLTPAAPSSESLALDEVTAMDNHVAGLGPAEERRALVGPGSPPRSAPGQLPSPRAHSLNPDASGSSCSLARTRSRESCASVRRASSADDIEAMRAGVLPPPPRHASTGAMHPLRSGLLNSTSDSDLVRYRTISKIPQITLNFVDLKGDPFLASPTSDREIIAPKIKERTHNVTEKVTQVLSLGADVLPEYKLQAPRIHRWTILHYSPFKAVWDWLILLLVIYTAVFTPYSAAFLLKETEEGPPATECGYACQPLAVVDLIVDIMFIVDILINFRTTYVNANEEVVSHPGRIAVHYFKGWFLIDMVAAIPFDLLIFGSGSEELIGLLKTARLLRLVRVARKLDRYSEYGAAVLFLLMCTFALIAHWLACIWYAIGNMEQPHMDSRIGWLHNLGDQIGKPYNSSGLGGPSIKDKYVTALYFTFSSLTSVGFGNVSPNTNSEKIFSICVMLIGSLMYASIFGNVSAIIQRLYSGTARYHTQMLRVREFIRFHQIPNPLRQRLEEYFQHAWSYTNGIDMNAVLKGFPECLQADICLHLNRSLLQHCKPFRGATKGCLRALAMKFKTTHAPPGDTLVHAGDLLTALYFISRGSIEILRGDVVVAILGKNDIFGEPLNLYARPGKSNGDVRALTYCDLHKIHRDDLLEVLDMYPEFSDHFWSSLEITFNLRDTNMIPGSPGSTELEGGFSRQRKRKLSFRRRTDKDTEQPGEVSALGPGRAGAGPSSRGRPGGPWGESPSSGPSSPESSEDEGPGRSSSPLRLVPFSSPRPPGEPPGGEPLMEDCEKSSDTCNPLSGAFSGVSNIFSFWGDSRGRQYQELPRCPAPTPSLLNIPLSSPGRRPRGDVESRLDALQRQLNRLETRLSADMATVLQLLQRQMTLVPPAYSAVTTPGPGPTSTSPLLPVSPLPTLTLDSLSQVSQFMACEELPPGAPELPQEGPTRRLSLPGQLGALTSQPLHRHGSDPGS

Row | Structure (SMILES) | IC50 (hERG) | IC50 (muscarinic M2 receptor) | IC50 (Menin protein)
1 | CC(C)N(C(=O)c1cc(F)ccc1-n1cc(C(=O)C2CCN(C(=O)[C@H]3NC[C@@H]4C[C@@H]43)CC2)c2ccncc21)C(C)C [Example 19, 2-(3-(1-((1S,2S,5R)-3-Azabicyclo[3.1.0]hexane-2-carbonyl)piperidine-4-carbonyl)-1H-pyrrolo[2,3-c]pyridin-1-yl)-5-fluoro-N,N-diisopropylbenzamide] | 128 µM | 21.3 µM | –
2 | C[C@@H]1COC[C@@H](C)N1C(=O)c1cc(F)ccc1-n1cc(C(=O)C2CCN(C(=O)[C@H]3N[C@@H]4CC[C@H]3C4)CC2)c2ccncc21 [Example 34, (1-((1R,3S,4S)-2-Azabicyclo[2.2.1]heptane-3-carbonyl)piperidin-4-yl)(1-(2-((3R,5R)-3,5-dimethylmorpholine-4-carbonyl)-4-fluorophenyl)-1H-pyrrolo[2,3-c]pyridin-3-yl)methanone] | – | – | 0.029 µM
3 | Cc1c(C(=O)C2CCN(C(=O)[C@H]3NC[C@@H]4C[C@@H]43)CC2)c2ccncc2n1-c1ccc(F)cc1C(=O)N(CC(F)(F)F)C(C)C (single isomer, unassigned) [Example 51-2] | > 200 µM | – | 0.022 µM
4 | CC(C)N(C(=O)c1cc(F)ccc1-n1cc(C(=O)C2CCN(C(=O)[C@H]3N[C@@H]4CC[C@H]3C4)CC2)c2ccncc21)C(C)C [Example 16, 2-(3-(1-((1R,3S,4S)-2-Azabicyclo[2.2.1]heptane-3-carbonyl)piperidine-4-carbonyl)-1H-pyrrolo[2,3-c]pyridin-1-yl)-5-fluoro-N,N-diisopropylbenzamide] | 128 µM | 1.1 µM | –
5 | CCN(C(=O)c1cc(F)ccc1-n1cc(C(=O)C2CCN(C(=O)[C@H]3N[C@@H]4CC[C@H]3C4)CC2)c2ccncc21)C(C)C [Example 31, 2-(3-(1-((1R,3S,4S)-2-Azabicyclo[2.2.1]heptane-3-carbonyl)piperidine-4-carbonyl)-1H-pyrrolo[2,3-c]pyridin-1-yl)-N-ethyl-5-fluoro-N-isopropylbenzamide] | > 200 µM | – | –
6 | CC(C)c1ncccc1-c1cc(F)ccc1-n1cc(C(=O)C2CCN(C(=O)[C@H]3N[C@@H]4CC[C@H]3C4)CC2)c2ccncc21 [Example 38, (1-((1R,3S,4S)-2-Azabicyclo[2.2.1]heptane-3-carbonyl)piperidin-4-yl)(1-(4-fluoro-2-(2-isopropylpyridin-3-yl)phenyl)-1H-pyrrolo[2,3-c]pyridin-3-yl)methanone] | 26 µM | – | –
7 | CCN(C(=O)c1cc(F)ccc1-n1c(C)c(C(=O)C2CCN(C(=O)[C@@H]3CCC4(CC4)N3)CC2)c2ccncc21)C(C)C (single isomer, unassigned) [Example 49-2] | – | – | 0.029 µM
8 | CC(C)N(C(=O)c1cc(F)ccc1-n1cc(C(=O)C2CN(C(=O)[C@H]3N[C@@H]4CC[C@H]3C4)C2)c2ccncc21)C(C)C [Example 5, 2-(3-(1-((1R,3S,4S)-2-Azabicyclo[2.2.1]heptane-3-carbonyl)azetidine-3-carbonyl)-1H-pyrrolo[2,3-c]pyridin-1-yl)-5-fluoro-N,N-diisopropylbenzamide] | > 200 µM | > 100 µM | –
9 | Cc1c(C(=O)[C@@H]2CCN(C(=O)[C@H]3NC[C@@H]4C[C@@H]43)[C@@H](C)C2)c2ccncc2n1-c1ccc(F)cc1C(=O)N(CC(F)(F)F)C(C)C (single isomer, unassigned) [Example 53-3, 2-(3-((2R*,4S*)-1-((1S,2S,5R)-3-Azabicyclo[3.1.0]hexane-2-carbonyl)-2-methylpiperidine-4-carbonyl)-2-methyl-1H-pyrrolo[2,3-c]pyridin-1-yl)-5-fluoro-N-isopropyl-N-(2,2,2-trifluoroethyl)benzamide] | – | – | 0.014 µM
10 | CC(C)N(C(=O)c1cc(F)ccc1-n1cc(C(=O)C2CN(C(=O)[C@H]3N[C@H]4C[C@@H]3[C@@H](F)C4)C2)c2ccncc21)C(C)C [Example 7, 5-Fluoro-2-(3-(1-((1S,3S,4S,5S)-5-fluoro-2-azabicyclo[2.2.1]heptane-3-carbonyl)azetidine-3-carbonyl)-1H-pyrrolo[2,3-c]pyridin-1-yl)-N,N-diisopropylbenzamide] | 150 µM | – | –
11 | CCN(C(=O)c1cc(F)ccc1-n1c(C)c(C(=O)C2CCN(C(=O)[C@H]3NC[C@@H]4C[C@@H]43)CC2)c2ccncc21)C(C)C [Example 47, 2-(3-(1-((1S,2S,5R)-3-Azabicyclo[3.1.0]hexane-2-carbonyl)piperidine-4-carbonyl)-2-methyl-1H-pyrrolo[2,3-c]pyridin-1-yl)-N-ethyl-5-fluoro-N-isopropylbenzamide] | 194 µM | 62.8 µM | –
12 | CCN(C(=O)c1cc(F)ccc1-n1c(C)c(C(=O)C2CCN(C(=O)[C@H]3NC[C@@H]4C[C@@H]43)CC2)c2ccncc21)C(C)C (single isomer, unassigned) [Example 48-2] | > 200 µM | – | 0.013 µM
13 | CCN(C(=O)c1cc(F)ccc1-n1cc(C(=O)C2CCN(C(=O)[C@H]3NC[C@@H]4C[C@@H]43)CC2)c2ccncc21)C(C)C [Example 28, 2-(3-(1-((1S,2S,5R)-3-Azabicyclo[3.1.0]hexane-2-carbonyl)piperidine-4-carbonyl)-1H-pyrrolo[2,3-c]pyridin-1-yl)-N-ethyl-5-fluoro-N-isopropylbenzamide] | > 200 µM | – | 0.017 µM
14 | CCN(C(=O)c1cc(F)ccc1-n1c(C)c(C(=O)C2CCN(C(=O)[C@H]3N[C@@H]4CC[C@H]3C4)CC2)c2ccncc21)C(C)C [Example 46, 2-(3-(1-((1R,3S,4S)-2-Azabicyclo[2.2.1]heptane-3-carbonyl)piperidine-4-carbonyl)-2-methyl-1H-pyrrolo[2,3-c]pyridin-1-yl)-N-ethyl-5-fluoro-N-isopropylbenzamide] | > 200 µM | – | –
15 | CCN(C(=O)c1cc(F)ccc1-n1c(C)c(C(=O)C2CCN(C(=O)[C@@H]3CCC(C)(C)N3)CC2)c2ccncc21)C(C)C (single isomer, unassigned) [Example 50-2] | – | – | 0.029 µM
16 | Cc1c(C(=O)C2CCN(C(=O)[C@H]3NC[C@@H]4C[C@@H]43)CC2)c2ccncc2n1-c1ccc(F)cc1C(=O)N(C(C)C)C(C)C (single isomer, unassigned) [Example 55-2] | 82.3 µM | – | 0.009 µM
17 | CC(C)n1nccc1-c1cc(F)ccc1-n1cc(C(=O)C2CCN(C(=O)[C@H]3N[C@@H]4CC[C@H]3C4)CC2)c2ccncc21 [Example 36, (1-((1R,3S,4S)-2-Azabicyclo[2.2.1]heptane-3-carbonyl)piperidin-4-yl)(1-(4-fluoro-2-(1-isopropyl-1H-pyrazol-5-yl)phenyl)-1H-pyrrolo[2,3-c]pyridin-3-yl)methanone] | 36.5 µM | – | –
18 | CC(C)c1ncncc1-c1cc(F)ccc1-n1cc(C(=O)C2CCN(C(=O)[C@H]3N[C@@H]4CC[C@H]3C4)CC2)c2ccncc21 [Example 37, (1-((1R,3S,4S)-2-Azabicyclo[2.2.1]heptane-3-carbonyl)piperidin-4-yl)(1-(4-fluoro-2-(4-isopropylpyrimidin-5-yl)phenyl)-1H-pyrrolo[2,3-c]pyridin-3-yl)methanone] | > 200 µM | – | –
19 | CC(C)N(C(=O)c1cc(F)ccc1-n1cc(C(=O)[C@H]2CCN(C(=O)[C@H]3N[C@@H]4CC[C@H]3C4)C2)c2ccncc21)C(C)C [Example 2, 2-(3-((S)-1-((1R,3S,4S)-2-Azabicyclo[2.2.1]heptane-3-carbonyl)pyrrolidine-3-carbonyl)-1H-pyrrolo[2,3-c]pyridin-1-yl)-5-fluoro-N,N-diisopropylbenzamide] | > 200 µM | 5.2 µM | –

Reference: patent US20240335431A1, “1-H-PYRROLO[2,3-c]PYRIDINE COMPOUNDS” (Acerta Pharma B.V., priority 2023, published 2024)
